Assay results as given in EP4810052A2, “HCRHR2 SELECTIVE POLYPEPTIDES” (Gubra A/S, priority 2023, dated 2026).
Where two headings read alike, the source gives them in different places. Starred links: 1 amine or outer side, 2 acyl side, 3 side chain; linkers in the order of their positions; H or OH if unused. Non-standard residues stand in square brackets, D forms with d. Residues, ends and D or L forms follow the SMILES beside them. Groups on a side chain read outwards from the residue. *: point of attachment. C20 diacid = O=C(O)CCCCCCCCCCCCCCCCCCC(=O)*; Pro(4S-NH2) = N[C@@H]1CN[C@H](C(=O)O)C1; γGlu = O=C(O)[C@H](CCC(=O)[*:2])N[*:1]; Nle = CCCC[C@H](N)C(=O)O; Ac5c = NC1(C(=O)O)CCCC1; AEEA = NCCOCCOCC(=O)O

What was measured:
hCRHR1 = biological target: T1, hCRHR1 (Homo sapiens, UniProt P34998); experiment: HTRF cAMP assay, determination of hCRHR1 potency (peptide libraries 5 conc., purified peptides 11 conc.); type: cell-based
T1 sequence (P34998 24-415): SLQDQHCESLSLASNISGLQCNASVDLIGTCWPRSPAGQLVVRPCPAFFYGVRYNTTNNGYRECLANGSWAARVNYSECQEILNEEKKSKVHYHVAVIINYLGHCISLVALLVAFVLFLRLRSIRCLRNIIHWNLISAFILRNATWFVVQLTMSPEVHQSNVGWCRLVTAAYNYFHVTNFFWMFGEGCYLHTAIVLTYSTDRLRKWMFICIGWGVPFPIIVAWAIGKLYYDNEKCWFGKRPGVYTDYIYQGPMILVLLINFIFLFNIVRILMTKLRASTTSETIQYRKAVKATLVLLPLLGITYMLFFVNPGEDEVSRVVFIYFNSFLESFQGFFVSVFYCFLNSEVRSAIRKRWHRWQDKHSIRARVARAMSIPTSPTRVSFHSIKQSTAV
Outline: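 CHO-K1 cells stably expressing human CRHR1, thawed from frozen stocks just before use, were stimulated in suspension with agonist peptides. cAMP was measured by HTRF competitive immunoassay (cryptate anti-cAMP antibody vs d2-cAMP).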

hCRHR2 = biological target: T2, hCRHR2 (Homo sapiens, UniProt Q13324); experiment: HTRF cAMP assay, determination of hCRHR2 potency (peptide libraries 5 conc., purified peptides 11 conc.); type: cell-based
T2 sequence (Q13324 1-411): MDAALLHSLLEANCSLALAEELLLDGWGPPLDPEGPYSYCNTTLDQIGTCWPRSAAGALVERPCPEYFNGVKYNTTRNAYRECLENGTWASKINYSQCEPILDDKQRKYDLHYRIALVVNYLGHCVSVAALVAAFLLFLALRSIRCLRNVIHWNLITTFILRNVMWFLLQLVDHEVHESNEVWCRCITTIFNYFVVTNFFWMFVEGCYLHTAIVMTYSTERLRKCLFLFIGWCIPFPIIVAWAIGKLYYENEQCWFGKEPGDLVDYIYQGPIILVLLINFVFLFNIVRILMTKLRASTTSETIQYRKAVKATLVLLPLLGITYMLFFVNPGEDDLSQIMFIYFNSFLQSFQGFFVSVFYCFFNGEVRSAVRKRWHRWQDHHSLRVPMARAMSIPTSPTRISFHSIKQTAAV
Outline: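 CHO-K1 cells stably expressing human CRHR2, thawed from frozen stocks just before use and run in suspension; cAMP measured by competitive HTRF immunoassay (cryptate anti-cAMP, d2-cAMP). Agonist peptides tested at 5 (libraries) or 11 (purified) concentrations; EC50 from sigmoid variable-slope nonlinear regression.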

[1] = library peptides, matched molecular pairs L vs Nle in position X^38, read-out: Potency hCRHR1 pEC50 (converted)
[2] = library peptides, matched molecular pairs L vs Nle in position X^38, read-out: Potency hCRHR2 pEC50 (converted)

SMILES | EC50 (hCRHR1) | EC50 (hCRHR2) | EC50 (hCRHR1; [1]) | EC50 (hCRHR2; [2])
CC[C@H](C)[C@H](N)C(=O)N[C@H](C(=O)N[C@@H](CC(C)C)C(=O)N[C@@H](CO)C(=O)N[C@@H](CC(C)C)C(=O)N[C@@H](CC(=O)O)C(=O)N[C@H](C(=O)N1CCC[C@H]1C(=O)N[C@H](C(=O)NCC(=O)N[C@@H](CC(C)C)C(=O)N[C@@H](CC(C)C)C(=O)N[C@@H](CCC(N)=O)C(=O)N[C@H](C(=O)N[C@@H](CC(C)C)C(=O)N[C@@H](CC(C)C)C(=O)N[C@@H](CCC(=O)O)C(=O)N[C@@H](CCC(N)=O)C(=O)N[C@@H](C)C(=O)N[C@@H](CCCNC(=N)N)C(=O)N[C@@H](C)C(=O)N[C@@H](CCCNC(=N)N)C(=O)N[C@@H](C)C(=O)N[C@@H](C)C(=O)N[C@@H](CCCNC(=N)N)C(=O)N[C@@H](CCC(=O)O)C(=O)N[C@@H](CCCNC(=N)N)C(=O)N[C@@H](C)C(=O)N[C@@H](CCCCNC(=O)COCCOCCNC(=O)COCCOCCNC(=O)CC[C@H](NC(=O)CC[C@H](NC(=O)CCCCCCCCCCCCCCCCCCC(=O)O)C(=O)O)C(=O)O)C(=O)N[C@H](C(=O)N[C@@H](CC(N)=O)C(=O)N[C@@H](C)C(=O)N[C@@H](CCC(=O)O)C(=O)N[C@H](C(=O)N[C@@H](CC(C)C)C(=O)N[C@@H](C)C(=O)N[C@@H](CCC(=O)O)C(=O)N[C@H](C(N)=O)C(C)C)[C@@H](C)CC)[C@@H](C)O)[C@@H](C)CC)[C@@H](C)CC)C(C)C)C(C)C [compound 66] (H-IVLSLDVPIGLLQILLEQARARAARERAK([AEEA-AEEA-γGlu-γGlu-C20 diacid])TNAEILAEV-NH2) | 50100 nM | 0.316 nM |  | 
CC[C@H](C)[C@H](N)C(=O)N[C@H](C(=O)N[C@@H](CC(C)C)C(=O)N[C@@H](CO)C(=O)N[C@@H](CC(C)C)C(=O)N[C@@H](CC(=O)O)C(=O)N[C@H](C(=O)N1CCC[C@H]1C(=O)N[C@H](C(=O)NCC(=O)N[C@@H](CC(C)C)C(=O)N[C@@H](CC(C)C)C(=O)N[C@@H](CCC(N)=O)C(=O)N[C@H](C(=O)N[C@@H](CC(C)C)C(=O)N[C@@H](CC(C)C)C(=O)N[C@@H](CCC(=O)O)C(=O)N[C@@H](CCC(N)=O)C(=O)N[C@@H](C)C(=O)N[C@@H](CCCNC(=N)N)C(=O)N[C@@H](C)C(=O)N[C@@H](CCCNC(=N)N)C(=O)N[C@@H](CCC(N)=O)C(=O)N[C@@H](C)C(=O)N[C@@H](CCCNC(=N)N)C(=O)N[C@@H](CCC(=O)O)C(=O)N[C@@H](CCC(N)=O)C(=O)N[C@@H](C)C(=O)N[C@@H](CCCCNC(=O)COCCOCCNC(=O)COCCOCCNC(=O)CC[C@H](NC(=O)CC[C@H](NC(=O)CCCCCCCCCCCCCCCCCCC(=O)O)C(=O)O)C(=O)O)C(=O)N[C@H](C(=O)N[C@@H](CC(N)=O)C(=O)N[C@@H](C)C(=O)N[C@@H](CCC(=O)O)C(=O)N[C@H](C(=O)N[C@@H](CC(C)C)C(=O)N[C@@H](C)C(=O)N[C@@H](CCC(=O)O)C(=O)N[C@H](C(N)=O)C(C)C)[C@@H](C)CC)[C@@H](C)O)[C@@H](C)CC)[C@@H](C)CC)C(C)C)C(C)C [compound 52] (H-IVLSLDVPIGLLQILLEQARARQAREQAK([AEEA-AEEA-γGlu-γGlu-C20 diacid])TNAEILAEV-NH2) |  |  | 1580 nM | 0.631 nM
CCCC[C@H](NC(=O)[C@@H](NC(=O)[C@H](CCC(=O)O)NC(=O)[C@H](C)NC(=O)[C@H](CC(N)=O)NC(=O)[C@@H](NC(=O)[C@H](CCCCNC(=O)COCCOCCNC(=O)COCCOCCNC(=O)CC[C@H](NC(=O)CC[C@H](NC(=O)CCCCCCCCCCCCCCCCCCC(=O)O)C(=O)O)C(=O)O)NC(=O)[C@H](C)NC(=O)[C@H](CCC(N)=O)NC(=O)[C@H](CCC(=O)O)NC(=O)[C@H](CCCNC(=N)N)NC(=O)[C@H](C)NC(=O)[C@H](CCC(N)=O)NC(=O)[C@H](CCCNC(=N)N)NC(=O)[C@H](C)NC(=O)[C@H](CCCNC(=N)N)NC(=O)[C@H](C)NC(=O)[C@H](CCC(N)=O)NC(=O)[C@H](CCC(=O)O)NC(=O)[C@H](CC(C)C)NC(=O)[C@H](CC(C)C)NC(=O)[C@@H](NC(=O)[C@H](CCC(N)=O)NC(=O)[C@H](CC(C)C)NC(=O)[C@H](CC(C)C)NC(=O)CNC(=O)[C@@H](NC(=O)[C@@H]1CCCN1C(=O)C1(NC(=O)[C@H](CC(=O)O)NC(=O)[C@H](CC(C)C)NC(=O)[C@H](CO)NC(=O)[C@H](CC(C)C)NC(=O)[C@@H](NC(=O)[C@@H](N)[C@@H](C)CC)C(C)C)CCCC1)[C@@H](C)CC)[C@@H](C)CC)[C@@H](C)O)[C@@H](C)CC)C(=O)N[C@@H](C)C(=O)N[C@@H](CCC(=O)O)C(=O)N[C@H](C(N)=O)C(C)C [compound 79] (H-IVLSLD[Ac5c]PIGLLQILLEQARARQAREQAK([AEEA-AEEA-γGlu-γGlu-C20 diacid])TNAEI[Nle]AEV-NH2) |  |  | 2 nM | 0.251 nM
CCCC[C@H](NC(=O)[C@@H](NC(=O)[C@H](CCC(=O)O)NC(=O)[C@H](C)NC(=O)[C@H](CC(N)=O)NC(=O)[C@@H](NC(=O)[C@H](CCCCNC(=O)COCCOCCNC(=O)COCCOCCNC(=O)CC[C@H](NC(=O)CC[C@H](NC(=O)CCCCCCCCCCCCCCCCCCC(=O)O)C(=O)O)C(=O)O)NC(=O)[C@H](C)NC(=O)[C@H](CCC(N)=O)NC(=O)[C@H](CCC(=O)O)NC(=O)[C@H](CCCNC(=N)N)NC(=O)[C@H](CC(C)C)NC(=O)[C@H](CCC(N)=O)NC(=O)[C@H](CCCNC(=N)N)NC(=O)[C@H](C)NC(=O)[C@H](CCCNC(=N)N)NC(=O)[C@H](C)NC(=O)[C@H](CCC(N)=O)NC(=O)[C@H](CCC(=O)O)NC(=O)[C@H](CC(C)C)NC(=O)[C@H](CC(C)C)NC(=O)[C@@H](NC(=O)[C@H](CCC(N)=O)NC(=O)[C@H](CC(C)C)NC(=O)[C@H](CC(C)C)NC(=O)CNC(=O)[C@@H](NC(=O)[C@@H]1CCCN1C(=O)[C@@H](NC(=O)[C@H](CC(=O)O)NC(=O)[C@H](CC(C)C)NC(=O)[C@H](CO)NC(=O)[C@H](CC(C)C)NC(=O)[C@@H](NC(=O)[C@@H](N)[C@@H](C)CC)C(C)C)C(C)C)[C@@H](C)CC)[C@@H](C)CC)[C@@H](C)O)[C@@H](C)CC)C(=O)N[C@@H](C)C(=O)N[C@@H](CCC(=O)O)C(=O)N[C@H](C(N)=O)C(C)C [compound 73] (H-IVLSLDVPIGLLQILLEQARARQLREQAK([AEEA-AEEA-γGlu-γGlu-C20 diacid])TNAEI[Nle]AEV-NH2) |  |  | 3.98 nM | 0.2 nM
CC[C@H](C)[C@H](N)C(=O)N[C@H](C(=O)N[C@@H](CC(C)C)C(=O)N[C@@H](CO)C(=O)N[C@@H](CC(C)C)C(=O)N[C@@H](CC(=O)O)C(=O)N[C@H](C(=O)N1C[C@@H](N)C[C@H]1C(=O)N[C@H](C(=O)NCC(=O)N[C@@H](CC(C)C)C(=O)N[C@@H](CC(C)C)C(=O)N[C@@H](CCC(N)=O)C(=O)N[C@H](C(=O)N[C@@H](CC(C)C)C(=O)N[C@@H](CC(C)C)C(=O)N[C@@H](CCC(=O)O)C(=O)N[C@@H](CCC(N)=O)C(=O)N[C@@H](C)C(=O)N[C@@H](CCCNC(=N)N)C(=O)N[C@@H](C)C(=O)N[C@@H](CCCNC(=N)N)C(=O)N[C@H](C(=O)N[C@@H](C)C(=O)N[C@@H](CCCNC(=N)N)C(=O)N[C@@H](CCC(=O)O)C(=O)N[C@@H](CCC(N)=O)C(=O)N[C@@H](C)C(=O)N[C@@H](CCCCNC(=O)COCCOCCNC(=O)COCCOCCNC(=O)CC[C@H](NC(=O)CC[C@H](NC(=O)CCCCCCCCCCCCCCCCCCC(=O)O)C(=O)O)C(=O)O)C(=O)N[C@H](C(=O)N[C@@H](CC(N)=O)C(=O)N[C@@H](C)C(=O)N[C@@H](CCC(=O)O)C(=O)N[C@H](C(=O)N[C@@H](CC(C)C)C(=O)N[C@@H](C)C(=O)N[C@@H](CCC(=O)O)C(=O)N[C@H](C(N)=O)C(C)C)[C@@H](C)CC)[C@@H](C)O)C(C)C)[C@@H](C)CC)[C@@H](C)CC)C(C)C)C(C)C [compound 76] (H-IVLSLDV[Pro(4S-NH2)]IGLLQILLEQARARVAREQAK([AEEA-AEEA-γGlu-γGlu-C20 diacid])TNAEILAEV-NH2) |  |  | 1.58 nM | 1.58 nM
